Experimental data reported in US7001983B1, “Antipathogenic synthetic peptides and compositions comprising them” (priority 1997, dated 2006).
≈ marks a conversion by molar mass, not a printed value. Where “and” joins values, the source holds several entries; their conditions need not be identical. Equal entries are not always repeated. Numbered stars: 1 amine (or outer) side, 2 acyl side, 3 side chain; on linkers, the order of the positions; unused ones are H or OH. Square brackets hold non-standard residues; d marks the D form. Peptide text beside a SMILES is read from it. Ethylenediamine = C(CN[*:2])N[*:1]

Experiments:
Escherichia coli D21 = assay type: cell-based; conditions: 100% inhibition of growth after 18–20 h
[1] = test system: Acinetobacter calcoaceticus Ac11; assay type: cell-based; conditions: 100% inhibition of growth after 18–20 h
Bacillus megaterium Bm11 = assay type: cell-based; conditions: 100% inhibition of growth after 18–20 h
[2] = test system: Micrococcus Iuteus ATCC 9341; assay: Antibacterial activity (MIC), growth inhibition in LB medium; assay type: cell-based, Micrococcus luteus; conditions: 100% inhibition of growth after 18–20 h
Experimental: (§1) (viii) Antibacterial activity of the peptides. The antibacterial activity of the diastereomers was examined in sterile 96-well plates (Nunc F96 microtiter plates) in a final volume of 100 μL as follows: Aliquots (50 μl) of a suspension containing bacteria at a concentration of 10^6 Colony-Forming Units (CFU)/ml LB (Lauria broth) medium were added to 50 μL of water or 66% pooled normal human serum in PBS, containing the peptide in 2-fold serial dilutions. Growth inhibition was determined by measuring the absorbance at 492 nm with a Microplate autoreader E1309 (Bio-tek Instruments), following incubation for 18–20 h at 37° C. […] The bacteria used were: Escherichia coli D21, Pseudomonas aeruginosa ATCC 27853, Acinetobacter calcoaceticus Ac11, Salmonella typhimurium LT2, Bacillus megaterium Bm11, Micrococcus Iuteus ATCC 9341, Bacillus subtilis ATCC 6051.

[3] = test system: human red blood cells (hRBC); assay: Hemolysis of human red blood cells; assay type: cell-based; conditions: hRBC; for % hemolysis at 50 μM peptide: 30 min at 37° C.
Experimental: (ix) Hemolysis of human red blood cells. The peptides were tested for their hemolytic activities against human red blood cells (hRBC). Fresh hRBC with EDTA were rinsed 3 times with PBS (35 mM phosphate buffer/0.15 M NaCl, pH 7.3) by centrifugation for 10 min at 800 g and resuspended in PBS. Peptides dissolved in PBS were then added to 50 μL of a solution of the stock hRBC in PBS to reach a final volume of 100 μL (final erythrocyte concentration, 5% v/v). The resulting suspension was incubated under agitation for 30 min at 37° C. The samples were then centrifuged at 800 g for 10 min. Release of hemoglobin was monitored by measuring the absorbance of the supernatant at 540 nm. Controls for zero hemolysis (blank) and 100% hemolysis consisted of hRBC suspended in PBS and Triton 1%, respectively.

[4] = test system: Leishmania mexicana NR strain promastigotes; assay: Anti-Leishmania activity, counting living promastigotes; assay type: cell-based; conditions: 100% death after 24 h of incubation
Experimental: The melittin-derived diastereomer peptide 20 (see Example 2 above) and the Leu/Lys diastereomer peptide 23 (see Example 3 above) were tested against Leishmania. Promastigotes of the Leishmania mexicana NR strain to be assayed were cultured at 27° C. in RPMI 1640 medium supplemented with 10% fetal bovine serum. Parasite were harvested by centrifugation at 1200×g for 10 min at 4° C. and washed twice with PBS (50 mM sodium phosphate, 150 mM NaCl, pH 7). The washed promastigotes were counted in a hemocytometer and adjusted to 1×10^6 parasites/ml. Aliquotes of this suspension were assayed in a final volume of 100 μl by counting living (motile) cells after 24 h of incubation at 26° C. in the absence or presence of various concentrations of the diastereomers.

[5] = test system: Bacillus subtilis ATCC 6051; assay type: cell-based; conditions: 100% inhibition of growth after 18–20 h
[6] = test system: Salmonella typhimurium LT2; assay: Antibacterial activity (MIC), growth inhibition in LB medium; assay type: cell-based; conditions: 100% inhibition of growth after 18–20 h
Experimental: as §1

[7] = test system: Pseudomonas aeruginosa ATCC 27853; conditions: 100% inhibition of growth after 18–20 h
Experimental: (viii) Antibacterial activity of the peptides.
Antibacterial activity of the mixtures was determined as described in Experimental procedures, section (xii).

SMILES | Minimal Inhibitory Concentration E. coli (D21) (Escherichia coli D21) [µM] | Minimal Inhibitory Concentration A. calcoaceticus (Ac11) [1] | Minimal Inhibitory Concentration B. megaterium (Bm11) (Bacillus megaterium Bm11) [µM] | Minimal Inhibitory Concentration M. luteus (ATCC 9341) [2] [µM] | % hemolysis at 50 μM peptide [3] [%] | MIC Leishmania mexicana [4] [µM] | Minimal Inhibitory Concentration B. subtilis (ATCC 6051) [5] [µM] | Minimal Inhibitory Concentration S. typhimurium (LT2) [6] [µM] | Minimal Inhibitory Concentration P. aeruginosa (ATCC 27853) [7] [µM] | hemolytic activity up to the maximum concentration tested ([3]; up to 50 μM)
CC[C@@H](C)[C@@H](NC(=O)[C@H](CC(C)C)NC(=O)[C@H](C)NC(=O)[C@@H]1CCCN1C(=O)[C@H](CC(C)C)NC(=O)CNC(=O)[C@@H](NC(=O)[C@@H](NC(=O)[C@H](CC(C)C)NC(=O)[C@H](NC(=O)[C@H](CCCCN)NC(=O)[C@H](CC(C)C)NC(=O)[C@H](NC(=O)[C@H](C)NC(=O)CNC(=O)[C@@H](NC(=O)CN)[C@@H](C)CC)C(C)C)C(C)C)[C@@H](C)O)[C@@H](C)O)C(=O)N[C@@H](CO)C(=O)N[C@@H](Cc1c[nH]c2ccccc12)C(=O)N[C@H](C(=O)N[C@H](CCCCN)C(=O)N[C@@H](CCCNC(=N)N)C(=O)NCCN)[C@@H](C)CC [Peptide 20, [D]-V^5V^8I^17K^21-[1-22]-TAmel] | 8 | 7 µM | 0.8 | 29 | 0 | 32 (≈ 75.2 µg/mL) |  |  |  | 
CC[C@H](C)[C@H](NC(=O)[C@H](CCCCN)NC(=O)[C@@H]1CCCN1C(=O)[C@@H](NC(=O)[C@H](CC(C)C)NC(=O)[C@H](C)NC(=O)[C@H](Cc1ccccc1)NC(=O)[C@H](Cc1ccccc1)NC(=O)CN)[C@@H](C)CC)C(=O)N[C@H](C(=O)N[C@@H](CO)C(=O)N[C@@H](CO)C(=O)N1CCC[C@H]1C(=O)N[C@@H](CC(C)C)C(=O)N[C@@H](Cc1ccccc1)C(=O)N[C@@H](CCCCN)C(=O)N[C@H](C(=O)N[C@H](CC(C)C)C(=O)N[C@H](CC(C)C)C(=O)N[C@@H](CO)C(=O)N[C@@H](C)C(=O)N[C@H](C(=O)NCC(=O)N[C@@H](CO)C(=O)N[C@@H](C)C(=O)N[C@@H](CC(C)C)C(=O)N[C@@H](CO)C(=O)N[C@@H](CO)C(=O)N[C@@H](CO)C(=O)NCC(=O)NCC(=O)N[C@@H](CCC(N)=O)C(=O)N[C@@H](CCC(=O)NCCN)C(=O)NCCN)C(C)C)[C@@H](C)O)[C@@H](C)CC [Peptide 14, [D]L^18L^19-TApar] | 3.5 | 1.5 µM and 2.5 µM | 0.6 | 2.5 | 100 |  | 1.5 |  |  | 
CC[C@H](C)[C@H](NC(=O)[C@H](CCCCN)NC(=O)[C@H]1CCCN1C(=O)[C@@H](NC(=O)[C@H](CC(C)C)NC(=O)[C@H](C)NC(=O)[C@H](Cc1ccccc1)NC(=O)[C@H](Cc1ccccc1)NC(=O)CNC(=O)[C@H](CCCCN)NC(=O)[C@@H](N)CCCCN)[C@@H](C)CC)C(=O)N[C@H](C(=O)N[C@@H](CO)C(=O)N[C@@H](CO)C(=O)N1CCC[C@H]1C(=O)N[C@@H](CC(C)C)C(=O)N[C@@H](Cc1ccccc1)C(=O)N[C@@H](CCCCN)C(=O)N[C@H](C(=O)N[C@H](CC(C)C)C(=O)N[C@H](CC(C)C)C(=O)N[C@@H](CO)C(=O)N[C@@H](C)C(=O)N[C@H](C(=O)O)C(C)C)[C@@H](C)O)[C@@H](C)CC [Peptide 6, K^1K^2[D]P^7L^18L^19[1-22]-par] | 15 | 6 µM | 6 |  | 0 |  |  | 120 | 60 | 
CC[C@H](C)[C@H](NC(=O)[C@H](CCCCN)NC(=O)[C@@H]1CCCN1C(=O)[C@@H](NC(=O)[C@H](CC(C)C)NC(=O)[C@H](C)NC(=O)[C@H](Cc1ccccc1)NC(=O)[C@H](Cc1ccccc1)NC(=O)CN)[C@@H](C)CC)C(=O)N[C@H](C(=O)N[C@@H](CO)C(=O)N[C@@H](CO)C(=O)N1CCC[C@H]1C(=O)N[C@@H](CC(C)C)C(=O)N[C@@H](Cc1ccccc1)C(=O)N[C@@H](CCCCN)C(=O)N[C@H](C(=O)N[C@@H](CC(C)C)C(=O)N[C@@H](CC(C)C)C(=O)N[C@@H](CO)C(=O)N[C@@H](C)C(=O)N[C@H](C(=O)NCC(=O)N[C@@H](CO)C(=O)N[C@@H](C)C(=O)N[C@@H](CC(C)C)C(=O)N[C@@H](CO)C(=O)N[C@@H](CO)C(=O)N[C@@H](CO)C(=O)NCC(=O)NCC(=O)N[C@@H](CCC(N)=O)C(=O)N[C@@H](CCC(=O)NCCN)C(=O)NCCN)C(C)C)[C@@H](C)O)[C@@H](C)CC [Peptide 8, TApar] | 3 | 3 µM | 0.8 | 5 | 100 |  | 1.5 | 15 | 8 | 
CC[C@@H](C)[C@@H](NC(=O)[C@H](CC(C)C)NC(=O)[C@H](C)NC(=O)[C@@H]1CCCN1C(=O)[C@H](CC(C)C)NC(=O)CNC(=O)[C@@H](NC(=O)[C@@H](NC(=O)[C@H](CC(C)C)NC(=O)[C@H](NC(=O)[C@H](CCCCN)NC(=O)[C@H](CC(C)C)NC(=O)[C@H](NC(=O)[C@H](C)NC(=O)CNC(=O)[C@@H](NC(=O)CN)[C@@H](C)CC)C(C)C)C(C)C)[C@@H](C)O)[C@@H](C)O)C(=O)N[C@@H](CO)C(=O)N[C@@H](Cc1c[nH]c2ccccc12)C(=O)N[C@H](C(=O)N[C@H](CCCCN)C(=O)N[C@@H](CCCNC(=N)N)C(=O)N[C@@H](CCCCN)C(=O)N[C@@H](CCCNC(=N)N)C(=O)N[C@@H](CCC(N)=O)C(=O)N[C@@H](CCC(N)=O)C(=O)O)[C@@H](C)CC [Peptide 19, [D]-V^5V^8I^17K^21-mel-COOH] | 18 | 18 µM | 1.2 | 50 | 0 |  | 8 |  |  | practically devoid of hemolytic activity
CC[C@H](C)[C@H](NC(=O)[C@H](CCCCN)NC(=O)[C@H]1CCCN1C(=O)[C@@H](NC(=O)[C@H](CC(C)C)NC(=O)[C@H](C)NC(=O)[C@H](Cc1ccccc1)NC(=O)[C@H](Cc1ccccc1)NC(=O)CN)[C@@H](C)CC)C(=O)N[C@H](C(=O)N[C@@H](CO)C(=O)NCCN)[C@@H](C)CC [Peptide 7, [D]P^7-[1-11]-TApar] (H-GFFALI[dP]KIIS-Ethylenediamine; N-terminus assumed) | >120 | >120 µM | 30 |  | 0 |  |  | >120 | >120 | 
